Here are results for one molecule from patent publication US20080032418A1, “Cell Free Assay Systems For Identifying A Substance Of Interest” (priority 2003, published 2008).

Experiment [1] deals with T1, serotonin receptor 5HT2C with a C-terminal His tag (Rattus norvegicus, UniProt P08909).
T1 construct: made in house; host or cells: bacteria (E. coli is named as the preferred host for the MBP system)
T1 sequence (P08909 with tags, fused parts or gaps): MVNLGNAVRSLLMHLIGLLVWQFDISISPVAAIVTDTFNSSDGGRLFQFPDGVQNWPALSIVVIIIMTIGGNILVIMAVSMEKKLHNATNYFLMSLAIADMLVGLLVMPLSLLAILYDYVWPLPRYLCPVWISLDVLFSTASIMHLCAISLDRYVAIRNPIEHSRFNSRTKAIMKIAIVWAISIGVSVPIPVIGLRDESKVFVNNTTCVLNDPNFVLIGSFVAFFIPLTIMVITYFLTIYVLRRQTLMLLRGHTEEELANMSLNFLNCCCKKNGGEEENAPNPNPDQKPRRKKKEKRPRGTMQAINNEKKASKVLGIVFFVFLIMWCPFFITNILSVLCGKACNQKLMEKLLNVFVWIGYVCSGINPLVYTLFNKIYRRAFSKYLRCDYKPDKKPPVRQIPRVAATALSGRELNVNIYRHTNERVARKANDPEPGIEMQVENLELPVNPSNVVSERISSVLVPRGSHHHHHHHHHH
In words: immunoprecipitation binding assay (anti-MBP, protein A beads, imidazole elution, fluorescence). The settings on record: receptor 0.2 μM, perylene 0.4 μM, overnight at 4° C.; FIGS. 5-7. As for the experimental part:
In these experiments, the affinity purified receptor (0.2 μM), and either compound 1, or control glycine-perylene (0.4 μM), were combined, in a total volume of 0.1 ml, and incubated on a rocking platform overnight, at 4° C. Further controls were provided, by taking samples of the two perylene molecules and treating them in the absence of protein.
All washes were retained for fluorescence measurements.
Perylene molecules were eluted from the bead bound proteins using 0.5M imidazole. Fluorescence of all samples and washes was measured, using a spectrofluorometer, excitation at 480 nm, and emission scan at 500-650 nm. Peak fluorescence was detected at 533-535 nm.

Experiment [2] relates to any of the receptor molecules described in example 1. The settings on record: 1.1 μM receptor, 2.5 μM compound 1, overnight at 4° C., Superose 6 gel filtration, excitation 485 nm, emission 535 nm.
Experimental: This example describes the chelation of the compound of example 4 to any of the receptor molecules described in example 1 and purification of the receptor-perylene complexes by gel filtration chromatography.
The receptor was affinity purified, following standard methods, and 1.1 μM of the molecule was combined with 2.5 μM of compound 1, in a total volume of 0.5 ml. The materials were incubated on a rocking platform, overnight, at 4° C. The mixture was then loaded onto a 20 ml column of Superose 6 Prep gel filtration media, and washed with running buffer (20 mM Tris, pH 7.4, 150 mM NaCl, 0.05% maltoside/0.01% CHS), to remove any unbound perylene. A total of 60 separate, 0.5 ml fractions were collected. A portion of each fraction was loaded into 60 wells of a 96 well plate, and fluorescence was measured at an excitation of 485 nm, and emission of 535 nm. Since the fluorescence quantum yield of perylene bound to receptor differs from that of unbound perylene, fluorescence was also measured after dissociating receptor-perylene complexes by adding imidazole to a final concentration of 0.5M to each of the fractions. A portion of each column fraction was loaded onto denaturing polyacrylamide gel, separated by electrophoreses, transferred to PVDF membranes, and receptor protein containing fractions were identified, using anti-MBP antibodies.

Take `CCCCCCC(CCCCCC)N1C(=O)c2ccc3c4ccc5c6c(ccc(c7ccc(c2c37)C1=O)c64)C(=O)N(CCCCC(C(=O)[O-])N(CC(=O)[O-])CC(=O)O)C5=O.[Ni+2]` (centres unmarked) [compound 1, N-(1-hexylheptyl)-N′-(nickel (II)-5-(1-carboxyl-1-(N-dicarboxylmethyl)pentyl))perylene-3,4,9,10-tetracarboxylic-diimide]: the “binding to the receptor (fluorescence following overnight elution with 0.5M imidazole)” value in experiment [1] is “bound to the receptor and required elution”. Moreover, in experiment [2], the “portion of the total perylene bound to receptor protein” value is recorded as “roughly one-third”.
